Where two headings read alike, the source gives them in different places. Non-standard residues stand in square brackets, D forms with d. Residues, ends and D or L forms follow the SMILES beside them. Primed or numbered codes have the meaning given here. No end group written: not given here. *: point of attachment. Doxorubicin(3'-N) = COc1cccc2c1C(=O)c1c(O)c3c(c(O)c1C2=O)C[C@@](O)(C(=O)CO)C[C@@H]3O[C@H]1C[C@H](N*)[C@H](O)[C@H](C)O1; X2 = COCCOCCOCCOCCOCCOCCOCCOCCOCCOCCOCCOCCOCCOCCOCCOCCOCC(=O)*; Decanoyl(3,6,9-trioxa) = COCCOCCOCC(=O)*; Glyceroyl(2R) = O=C([C@H](O)CO)*; X4 = COCCOCCOCCOCCOCCOCCOCC(=O)*; hArg = N=C(N)NCCCC[C@H](N)C(=O)O; 3Pal = N[C@@H](Cc1cccnc1)C(=O)O; Chg = N[C@H](C(=O)O)C1CCCCC1; PEG(16) = PEG(16): -; PEG(17) = PEG(17): -; Glycolyl = O=C(CO)*
What was measured:
[1] = tested on: LNCap prostate tumor cells; assay: In vitro cytotoxicity, Alamar Blue assay, LNCaP; type: cell-based; conditions: 72 HRS, read-out: LNCaP Cell Kill in 72 HRS, {48 HRS} EC 50
Protocol: (§1) The cytotoxicities of the cleaveable oligopeptide-doxorubicin conjugates, prepared as described in Examples 3-6, against a line of cells which is known to be killed by unmodified doxorubicin was assessed with an Alamar Blue assay. Specifically, cell cultures of LNCap prostate tumor cells or DuPRO cells in 96 well plates was diluted with medium containing various concentrations of a given conjugate (final plate well volume of 200 μl ). The cells were incubated for 3 days at 37° C., 20 μl of Alamar Blue is added to the assay well. The cells were further incubated and the assay plates were read on a EL-310 ELISA reader at the dual wavelengths of 570 and 600 nm at 4 and 7 hours after addition of Alamar Blue. Relative percentage viability at the various concentration of conjugate tested was then calculated versus control (no conjugate) cultures. If no salt is indicated, the free conjugate was tested.

[2] = tested on: DuPRO cells; assay: In vitro cytotoxicity, Alamar Blue assay, DuPRO; type: cell-based; conditions: value in parentheses beside the LNCaP value, read-out: DuPRO cell kill EC 50
Protocol: as §1

[3] = target: T1, enzymatically active free PSA (Homo sapiens, UniProt P07288); assay: Recognition (cleavage) of oligopeptide-doxorubicin conjugates by free PSA, HPLC; type: biochemical; conditions: DOX conjugate; for Time to 50% Substrate Cleavage by York PSA: PSA digestion buffer pH7.4, 140 mM NaCl, molar ratio to PSA 100 to 1
T1 construct: required for 50% cleavage of the noted oligopeptides with enzymatically active free PSA
Protocol: If no salt is indicated for the conjugate, the free conjugate was tested.

[4] = target: T1, enzymatically active free PSA; type: biochemical; conditions: oligopeptide; for Time to 50% Substrate Cleavage by York PSA: PSA digestion buffer pH8.0, molar ratio to PSA 100 to 1
Protocol: All other oligopeptides were tested as neutral compounds.

T1 sequence (P07288 25-261): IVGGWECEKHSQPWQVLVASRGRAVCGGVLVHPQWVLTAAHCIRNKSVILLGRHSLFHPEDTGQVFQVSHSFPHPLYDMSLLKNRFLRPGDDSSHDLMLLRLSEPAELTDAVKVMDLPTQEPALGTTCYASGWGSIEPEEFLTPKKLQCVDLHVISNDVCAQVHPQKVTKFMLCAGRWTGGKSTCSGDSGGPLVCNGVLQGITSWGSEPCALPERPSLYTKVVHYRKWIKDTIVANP

Compound | EC50 [1] [µM] | Time to 50% Substrate Cleavage by York PSA [3] [min] | other results
COc1cccc2c1C(=O)c1c(O)c3c(c(O)c1C2=O)C[C@@](O)(C(=O)CO)C[C@@H]3O[C@H]1C[C@H](NC(=O)[C@H](CC(C)C)NC(=O)[C@H](CO)NC(=O)[C@H](CCC(N)=O)NC(=O)[C@@H](NC(=O)[C@H](CO)NC(=O)[C@H](C)NC(=O)[C@H](CCCCNC(=N)N)NC(=O)CO)C2CCCCC2)[C@H](O)[C@H](C)O1 [2-hydroxyacetyl-HomoRASChgQ-SL-DOX (3′), 2-hydroxyacetyl-hArgAlaSerChgGln-SerLeu-DOX (3′)] (Glycolyl-[hArg]AS[Chg]QSL-{Doxorubicin(3'-N)}) | 7.9 | – | –
COc1cccc2c1C(=O)c1c(O)c3c(c(O)c1C2=O)C[C@@](O)(C(=O)CO)C[C@@H]3O[C@H]1C[C@H](NC(=O)[C@H](CC(C)C)NC(=O)[C@H](CO)NC(=O)[C@H](CCC(N)=O)NC(=O)[C@@H](NC(=O)[C@H](CO)NC(=O)[C@H](CO)NC(=O)[C@H](CCCCNC(=N)N)NC(=O)CO)C2CCCCC2)[C@H](O)[C@H](C)O1 [2-hydroxyacetyl-HomoRSSChgQ-SL-DOX (3′), 2-hydroxyacetyl-hArgSerSerChgGln-SerLeu-DOX (3′)] (Glycolyl-[hArg]SS[Chg]QSL-{Doxorubicin(3'-N)}) | 5.5 | – | EC50 [2]: > 100 µM
COc1cccc2c1C(=O)c1c(O)c3c(c(O)c1C2=O)C[C@@](O)(C(=O)CO)C[C@@H]3O[C@H]1C[C@H](NC(=O)[C@H](CC(C)C)NC(=O)[C@H](CO)NC(=O)[C@H](CCC(N)=O)NC(=O)[C@H](Cc2ccc(O)cc2)NC(=O)[C@H](CO)NC(=O)[C@H](CO)NC(=O)[C@H](CCCCNC(=N)N)NC(=O)CO)[C@H](O)[C@H](C)O1 [2-hydroxyacetyl-HomoRSSYQ-SL-DOX (3′), 2-hydroxyacetyl-hArgSerSerTyrGln-SerLeu-DOX (3′)] (Glycolyl-[hArg]SSYQSL-{Doxorubicin(3'-N)}) | 13.6 | 16 | –
COc1cccc2c1C(=O)c1c(O)c3c(c(O)c1C2=O)C[C@@](O)(C(=O)CO)C[C@@H]3O[C@H]1C[C@H](NC(=O)[C@H](CC(C)C)NC(=O)[C@H](CO)NC(=O)[C@H](CCC(N)=O)NC(=O)[C@@H](NC(=O)[C@H](CCCCNC(=N)N)NC(=O)[C@H](CO)NC(=O)CO)C2CCCCC2)[C@H](O)[C@H](C)O1 [2-hydroxyacetyl-SHomoRChgQ-SL-DOX (3′), 2-hydroxyacetyl-SerhArgChgGln-SerLeu-DOX (3′)] (Glycolyl-S[hArg][Chg]QSL-{Doxorubicin(3'-N)}) | 5.1 | – | EC50 [2]: > 100 µM
COc1cccc2c1C(=O)c1c(O)c3c(c(O)c1C2=O)C[C@@](O)(C(=O)CO)C[C@@H]3O[C@H]1C[C@H](NC(=O)[C@H](CC(C)C)NC(=O)[C@H](CO)NC(=O)[C@H](CO)NC(=O)[C@H](CO)NC(=O)[C@H](CCC(N)=O)NC(=O)[C@H](Cc2ccc(O)cc2)NC(=O)[C@H](CO)NC(=O)CO)[C@H](O)[C@H](C)O1 [2-hydroxyacetyl-SYQ-SSSL-DOX (3′), 2-hydroxyacetyl-SerTyrGln-SerSerSerLeu-DOX (3′)] (Glycolyl-SYQSSSL-{Doxorubicin(3'-N)}) | 18.8 | – | –
COc1cccc2c1C(=O)c1c(O)c3c(c(O)c1C2=O)C[C@@](O)(C(=O)CO)C[C@@H]3O[C@H]1C[C@H](NC(=O)[C@H](CC(C)C)NC(=O)[C@H](CO)NC(=O)[C@H](CCC(N)=O)NC(=O)[C@@H](NC(=O)[C@H](CO)NC(=O)[C@H](CO)NC(=O)[C@H](Cc2cccnc2)NC(=O)[C@H](O)CO)C2CCCCC2)[C@H](O)[C@H](C)O1 [(d)(2,3-dihydroxypropionyl)-3PAL-SerSerChgGln-SerLeu-DOX (3′)] ({Glyceroyl(2R)}-[3Pal]SS[Chg]QSL-{Doxorubicin(3'-N)}) | 5.5 | 12 | –
COCCOCCOCC(=O)N[C@@H](C)C(=O)N[C@@H](CO)C(=O)N[C@H](C(=O)N[C@@H](CCC(N)=O)C(=O)N[C@@H](CO)C(=O)N[C@@H](CC(C)C)C(=O)N[C@H]1C[C@H](O[C@H]2C[C@](O)(C(=O)CO)Cc3c(O)c4c(c(O)c32)C(=O)c2c(OC)cccc2C4=O)O[C@@H](C)[C@H]1O)C1CCCCC1 [PEG(2)-ASChgQ-SL-DOX (3′), PEG(2)-AlaSerChgGln-SerLeu-DOX (3′)] ({Decanoyl(3,6,9-trioxa)}-AS[Chg]QSL-{Doxorubicin(3'-N)}) | 5.6 | 45 | –
COCCOCCOCC(=O)N[C@@H](CCCCNC(=N)N)C(=O)N[C@@H](Cc1ccc(O)cc1)C(=O)N[C@@H](CCC(N)=O)C(=O)N[C@@H](CO)C(=O)N[C@@H](CO)C(=O)N[C@@H](CO)C(=O)N[C@@H](CC(C)C)C(=O)N[C@H]1C[C@H](O[C@H]2C[C@](O)(C(=O)CO)Cc3c(O)c4c(c(O)c32)C(=O)c2c(OC)cccc2C4=O)O[C@@H](C)[C@H]1O [PEG(2)-HomoRYQ-SSSL-DOX (3′), PEG(2)-hArgTyrGln-SerSerSerLeu-DOX (3′)] ({Decanoyl(3,6,9-trioxa)}-[hArg]YQSSSL-{Doxorubicin(3'-N)}) | 14 | – | Substrate cleavage by York PSA at 4 HOUR ([3]; 4 hours): 40%
COCCOCCOCC(=O)N[C@@H](CCCCN)C(=O)N[C@@H](Cc1ccc(O)cc1)C(=O)N[C@@H](CCC(N)=O)C(=O)N[C@@H](CO)C(=O)N[C@@H](CO)C(=O)N[C@@H](CO)C(=O)N[C@@H](CC(C)C)C(=O)N[C@H]1C[C@H](O[C@H]2C[C@](O)(C(=O)CO)Cc3c(O)c4c(c(O)c32)C(=O)c2c(OC)cccc2C4=O)O[C@@H](C)[C@H]1O [PEG(2)-KYQ-SSSL-DOX (3′), PEG(2)-LysTyrGln-SerSerSerLeu-DOX (3′)] ({Decanoyl(3,6,9-trioxa)}-KYQSSSL-{Doxorubicin(3'-N)}) | 12.8 | – | –
COCCOCCOCC(=O)N[C@@H](CO)C(=O)N[C@@H](CCCCNC(=N)N)C(=O)N[C@@H](Cc1ccc(O)cc1)C(=O)N[C@@H](CCC(N)=O)C(=O)N[C@@H](CO)C(=O)N[C@@H](CC(C)C)C(=O)N[C@H]1C[C@H](O[C@H]2C[C@](O)(C(=O)CO)Cc3c(O)c4c(c(O)c32)C(=O)c2c(OC)cccc2C4=O)O[C@@H](C)[C@H]1O [PEG(2)-SHomoRYQ-SL-DOX (3′), PEG(2)-SerhArgTyrGln-SerLeu-DOX (3′)] ({Decanoyl(3,6,9-trioxa)}-S[hArg]YQSL-{Doxorubicin(3'-N)}) | – | 60 | EC50 ([1]; listed as PEG(2)-ShRYQ-SL-DOX(3′)): 34 µM
COCCOCCOCCOCCOCCOCCOCC(=O)N[C@@H](C)C(=O)N[C@@H](CO)C(=O)N[C@H](C(=O)N[C@@H](CCC(N)=O)C(=O)N[C@@H](CO)C(=O)N[C@@H](CC(C)C)C(=O)N[C@H]1C[C@H](O[C@H]2C[C@](O)(C(=O)CO)Cc3c(O)c4c(c(O)c32)C(=O)c2c(OC)cccc2C4=O)O[C@@H](C)[C@H]1O)C1CCCCC1 [PEG(6)-ASChgQ-SL-DOX (3′), PEG(6)-AlaSerChgGln-SerLeu-DOX (3′)] (X4-AS[Chg]QSL-{Doxorubicin(3'-N)}) | 12 | 160 | –
COCCOCCOCCOCCOCCOCCOCCOCCOCCOCCOCCOCCOCCOCCOCCOCCOCC(=O)N[C@@H](CO)C(=O)N[C@@H](CCCCNC(=N)N)C(=O)N[C@@H](Cc1ccc(O)cc1)C(=O)N[C@@H](CCC(N)=O)C(=O)N[C@@H](CO)C(=O)N[C@@H](CC(C)C)C(=O)N[C@H]1C[C@H](O[C@H]2C[C@](O)(C(=O)CO)Cc3c(O)c4c(c(O)c32)C(=O)c2c(OC)cccc2C4=O)O[C@@H](C)[C@H]1O [PEG(16)-SHomoRYQ-SL-DOX (3′), PEG(16)-SerhArgTyrGln-SerLeu-DOX (3′)] (X2-S[hArg]YQSL-{Doxorubicin(3'-N)}) | 45 | 65 | –
PEG(2)-SerSerSerChgGln-Ser(dLeu)-DOX (3′) ({Decanoyl(3,6,9-trioxa)}-SSS[Chg]QS[dL]-{Doxorubicin(3'-N)}; also: DOX attached at 3′) [PEG(2)-SSSChgQ-S(dL)-DOX (3′)] | – | – | Substrate cleavage by York PSA at 3 HOUR ([3]; 3 hours): 46%
PEG(16)-ShRYQ-SL-acid: blocked oligopeptide with PSA cleavage site, Example 1 ({PEG(16)}-S[hArg]YQSL-OH) | – | – | Time to 50% Substrate Cleavage by York PSA [4]: 40 min
PEG(17)-ShRYQ-SL-acid: blocked oligopeptide with PSA cleavage site, Example 1 ({PEG(17)}-S[hArg]YQSL-OH) | – | – | Time to 50% Substrate Cleavage by York PSA [4]: 55 min
PEG(18)ShRYQ-SL-acid: blocked oligopeptide with PSA cleavage site, Example 1 ({PEG(18)}-S[hArg]YQSL-OH) | – | – | Time to 50% Substrate Cleavage by York PSA [4]: 40 min
PEG(19)ShRYQ-SL-acid: blocked oligopeptide with PSA cleavage site, Example 1 ({PEG(19)}-S[hArg]YQSL-OH) | – | – | Time to 50% Substrate Cleavage by York PSA [4]: 60 min
ShRChgQ-SL-acid: oligopeptide without N-terminal blocking group, Example 1 (S[hArg][Chg]QSL-OH) | – | – | Substrate cleavage by York PSA at 4 HOUR ([4]; 4 hours): 4 HOUR = 8%

Source: patent US6391305B1, “Conjugates useful in the treatment of prostate cancer” (priority 1999, dated 2002)
